US12692232B2, “Indole carboxamide compound, preparation therefor and use thereof” (NANJING RUISHUNING MEDICAL TECHNOLOGY CO., LTD., priority 2021, dated 2026)

Molecular target: T1, TRPC5 protein (Homo sapiens, UniProt Q9UL62)
T1 sequence (Q9UL62 1-973): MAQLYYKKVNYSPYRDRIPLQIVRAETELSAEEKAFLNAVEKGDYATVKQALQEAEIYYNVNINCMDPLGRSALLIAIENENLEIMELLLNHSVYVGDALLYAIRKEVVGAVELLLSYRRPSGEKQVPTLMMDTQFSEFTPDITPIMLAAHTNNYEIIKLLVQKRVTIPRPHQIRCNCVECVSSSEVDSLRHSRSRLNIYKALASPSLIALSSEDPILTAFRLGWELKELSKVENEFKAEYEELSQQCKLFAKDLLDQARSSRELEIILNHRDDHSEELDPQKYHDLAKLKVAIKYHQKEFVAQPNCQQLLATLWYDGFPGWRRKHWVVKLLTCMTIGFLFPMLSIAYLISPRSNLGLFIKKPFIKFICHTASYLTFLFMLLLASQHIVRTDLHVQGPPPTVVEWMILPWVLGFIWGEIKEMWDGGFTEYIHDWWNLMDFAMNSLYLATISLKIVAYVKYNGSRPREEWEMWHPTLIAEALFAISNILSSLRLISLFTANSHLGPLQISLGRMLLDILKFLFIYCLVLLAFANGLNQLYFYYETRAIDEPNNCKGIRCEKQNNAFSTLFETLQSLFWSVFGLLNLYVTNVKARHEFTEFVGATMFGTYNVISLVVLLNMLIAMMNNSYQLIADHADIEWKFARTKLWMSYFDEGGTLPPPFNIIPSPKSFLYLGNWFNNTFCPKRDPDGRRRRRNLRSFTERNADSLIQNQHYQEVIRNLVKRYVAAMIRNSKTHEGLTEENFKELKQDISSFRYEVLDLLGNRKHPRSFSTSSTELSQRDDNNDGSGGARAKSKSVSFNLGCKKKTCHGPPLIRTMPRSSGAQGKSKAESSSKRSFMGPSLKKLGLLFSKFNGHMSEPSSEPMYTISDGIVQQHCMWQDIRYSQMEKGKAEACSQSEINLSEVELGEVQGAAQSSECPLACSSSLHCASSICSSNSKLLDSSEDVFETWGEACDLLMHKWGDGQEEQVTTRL
Experiment: MST binding to TRPC5 protein
Description: Preparation and labelling of protein solution: TRPC6 protein dry powder (Alomone Labs, Israel) was prepared into a protein mother solution at a concentration of 10 μM using PBS-Buffer, and 35 μL of the protein stock solution was taken to the Buffer exchange A column, and centrifuged to obtain the Tris-removed protein. 34 μL Labelling Buffer was added to the Tris-removed protein according to the instructions of the Protein Fluorescent Labelling Kit (model L001). After mixing well, 3 μL of NT-647-NHS fluorescent dye was added and thus obtained mixture was incubated for 20 minutes. The protein-dye mixture was transferred to the purification B column, 300 μL of PBS-Buffer was added, and the target protein, i.e. fluorescent labelled protein TRPC6, was collected by centrifugation (with a final concentration of about 2 μM). 180 μL of target protein was mixed with 1620 μL of PBS-Buffer, and then 9 μl of Tween-20 were added thereto. […]
The binding ability of the compounds of the present invention (as exemplified by the compounds 1-1 and 2-1 obtained in Examples 1 and 3) for other TRPC proteins (e.g., TRPC1, TRPC3, TRPC4, TRPC5, and TRPC7) was determined using the microscale thermophoresis (MST) method. […]
The affinity of the compounds of the present invention with TRPC1, TRPC3, TRPC4, TRPC5 and TRPC7 proteins, respectively, was determined by the same method as in Example 5.

Row | Structure (SMILES) | Kd for binding to TRPCS protein
1 | CC(=O)OCCCNC(=O)c1c(C=O)c2ccccc2n1C [compound 1-1, propyl 3-[(3-formyl-1-methyl-1H-indole-2-carbonyl)amino]acetate] | cannot be measured
2 | Cn1c(C(=O)NCCCOC(=O)c2ccccc2)c(C=O)c2ccccc21 [compound 2-1] | cannot be measured
